This passage reports inhibition and Ki results from PMC6268179, “Synthesis, Docking Studies and Biological Evaluation of Benzo[b]thiophen-2-yl-3-(4-arylpiperazin-1-yl)-propan-1-one Derivatives on 5-HT1A Serotonin Receptors” (Molecules, 2012).

The structures appear in SMILES notation.

In assay [1] the target is T1, 5-HT1A receptor (Rattus norvegicus, UniProt P19327).
T1 construct: gene Htr1a; rat cerebral cortex membranes
T1 sequence (P19327 1-422): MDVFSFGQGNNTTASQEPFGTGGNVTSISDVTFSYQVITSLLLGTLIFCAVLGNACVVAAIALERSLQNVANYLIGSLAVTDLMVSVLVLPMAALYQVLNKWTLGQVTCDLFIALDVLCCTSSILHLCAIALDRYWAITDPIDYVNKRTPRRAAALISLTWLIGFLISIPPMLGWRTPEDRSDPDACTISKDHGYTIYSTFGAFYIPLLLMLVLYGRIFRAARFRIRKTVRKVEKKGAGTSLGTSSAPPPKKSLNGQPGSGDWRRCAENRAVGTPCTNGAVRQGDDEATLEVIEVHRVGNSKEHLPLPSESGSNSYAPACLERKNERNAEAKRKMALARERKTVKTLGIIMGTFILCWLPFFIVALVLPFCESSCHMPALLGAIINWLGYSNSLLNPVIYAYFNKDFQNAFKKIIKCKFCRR
As to the kind of experiment: radioligand displacement of [3H]-8-OH-DPAT, single dose […]. (Displacement assays read how much labelled ligand stays bound in the presence of the test substance.)

Assay [2] deals with T1, 5-HT1A receptor. As to the kind of experiment: radioligand displacement of [3H]-8-OH-DPAT, dose-response. The class given is binding.

By inhibition is commonly meant how much of the control response was suppressed. Low readings indicate a response near the control, high ones a response far below the control. Take `COc1ccccc1N1CCN(CCC(=O)c2cc3ccccc3s2)CC1` [7d, 3-[4-(2-Methoxyphenyl)piperazin-1-yl]-1-(benzo[b]thiophen-2-yl)-1-propanone]: on 5-HT1A receptor [1], 1 µM produced 52 ± 7% inhibition.

One may read the Ki as a measure of affinity in units of concentration, obtained from inhibition or displacement. Higher therefore signals lower affinity. For `O=C(CCN1CCN(c2ccccn2)CC1)c1cc2ccccc2s1` [7e, 1-(benzo[b]thiophen-2-yl)-3-(4-(pyridin-2-yl)piperazin-1-yl)propan-1-one], the Ki on 5-HT1A receptor [2] came to 2.3 µM.
